Assay results from US20250074955A1, “MODIFIED LOW MOLECULAR WEIGHT GLUTENIN SUBUNIT AND USES THEREOF” (Ukko Inc., priority 2022, published 2025).
Where no end group is shown, it is not given here.

What was measured:
HLA-DQ7.5 = target: T1, HLA-DQ7.5 (Homo sapiens, UniProt P01909+P01920); assay: MHC class II binding competition assay with radiolabeled probe peptide; settings: competition with MHC class II bound radiolabeled probe peptide, purified MHC, 2-4 days incubation
T1 construct: made in house
Experimental: In-vitro testing of modified gluten peptides was performed by a Major histocompatibility complex (MHC class II) binding assay (Sidney J. et. al. Current protocols in immunology 100.1 (2013)). Briefly, competition assays using different concentrations of WT and modified low molecular weight glutenin subunit (LMW-GS) peptides were conducted by diluting the peptides in NP40 buffer, and incubation for 2-4 days with purified MHC and a radiolabeled known MHC binding peptide (peptide probe). MHC class II molecules were purified by affinity chromatography, and peptides were radiolabeled using the chloramine T method. After the incubation period, the bound and unbound radiolabeled species were separated, and their relative amounts were determined by either size-exclusion gel-filtration chromatography or monoclonal antibody capture of MHC. The percentage of bound radioactivity was then determined. For each modified peptide, IC50 of WT and modified peptide were calculated. The known gluten peptide epitopes were analyzed for MHC binding as a positive control, both in the non-deamidated and in the deamidated form.
Tables I and II list the measured IC50 values from competition assays between the specified peptides and an MHC class II bound probe peptide.

HLA-DQ2.2 = HLA-DQ2.2 (Homo sapiens, UniProt P01909+P01920, A45G/A70V/C70K/D167G/D89A/E106A/E183D/E77G/E98D/F237L/F77L/G63E/H199R/I129T/K197E/L107V/L178F/L74F/N214S/P84L/P87L/Q57E/Q76R/R75H/S185I/S97I/T103K/T109R/T172A/T60S/V73L/V78E/V99I/Y48F/Y58L/Y62S/Y69I/Y79F); assay: as above; settings: competition with MHC class II bound radiolabeled probe peptide, purified MHC, 2-4 days incubation
HLA-DQ8 = HLA-DQ8 (Homo sapiens, UniProt P01909+P01920, A209T/A45G/C70Q/D89A/DUP78-78/E183D/E77G/F237L/G63E/H199R/I129T/K197E/L178F/L74F/L98V/Q57E/Q76R/S185I/S97I/T217I/T49S/V73L/Y58L); assay: as above; settings: competition with MHC class II bound radiolabeled probe peptide, purified MHC, 2-4 days incubation
HLA-DQ2.5 = HLA-DQ2.5 (Homo sapiens, UniProt P01909+P01920, A45G/A70V/D89A/E106A/E77G/E98D/H199R/L107V/N214S/P84L/P87L/T103K/T109R/T172A/T60S/V78E/V99I/Y58L/Y62S/Y69I/Y79F); assay: as above; settings: competition with MHC class II bound radiolabeled probe peptide, purified MHC, 2-4 days incubation
HLA-DQ8 (human) = assay: competition with radiolabeled probe peptide, purified MHC class II
HLA-DQ2.5 (human) = assay: as above
HLA-DQ2.2 (human) = assay: as above

Row | Molecule | IC50 (HLA-DQ7.5) [µM] | IC50 (HLA-DQ2.2) [µM] | IC50 (HLA-DQ8) [µM] | IC50 (HLA-DQ2.5) [µM] | IC50 (HLA-DQ8 (human)) [µM] | IC50 (HLA-DQ2.5 (human)) [µM] | IC50 (HLA-DQ2.2 (human)) [µM]
1 | GPPFSKQTEPVISQQ [SEQ ID NO: 186] | > 40 | > 40 | 38.2 | > 40 | – | – | –
2 | QGPPFSKQTQPVIPQ [SEQ ID NO: 72] | > 40 | > 40 | > 40 | > 40 | – | – | –
3 | QPPDSHQQHSPGSQQ [SEQ ID NO: 84] | > 40 | > 40 | > 40 | > 40 | – | – | –
4 | QPPSSEQQHSPPSQQ [SEQ ID NO: 81] | > 40 | 39.8 | 31.9 | > 40 | – | – | –
5 | QPSFSRQQKQPQSQQ [SEQ ID NO: 86] | > 40 | > 40 | > 40 | > 40 | – | – | –
6 | QQPAFSRQHQPSLPQ [SEQ ID NO: 73] | > 40 | – | – | – | – | – | –
7 | QQPFPEQQRSQFSQQ [SEQ ID NO: 85] | > 40 | > 40 | 35.8 | > 40 | – | – | –
8 | QQPPDSHQEHSPGPQ [SEQ ID NO: 187] | > 40 | > 40 | > 40 | > 40 | – | – | –
9 | QQPPFPRQHQQFPQQ [SEQ ID NO: 74] | > 40 | > 40 | > 40 | > 40 | – | – | –
10 | QQPPFSHQRPPFSQQ [SEQ ID NO: 70] | > 40 | > 40 | 39.1 | > 40 | – | – | –
11 | QQPPFSKQEQQQPIL [SEQ ID NO: 71] | > 40 | > 40 | 29.8 | > 40 | – | – | –
12 | QQPPSSEQEHSPPSQ [SEQ ID NO: 79] | > 40 | – | – | – | – | – | –
13 | QQSPFPEQEQQHQQL [SEQ ID NO: 183] | > 40 | > 40 | 39.9 | 32.4 | – | – | –
14 | QQSPFSRQEKSPFSQ [SEQ ID NO: 78] | > 40 | > 40 | > 40 | > 40 | – | – | –
15 | QSPFSRQQKSPFSQQ [SEQ ID NO: 80] | > 40 | > 40 | > 40 | > 40 | – | – | –

Now from value to molecule:

Row | IC50 (HLA-DQ7.5) [µM] | IC50 (HLA-DQ2.2) [µM] | IC50 (HLA-DQ8) [µM] | IC50 (HLA-DQ2.5) [µM] | IC50 (HLA-DQ8 (human)) [µM] | IC50 (HLA-DQ2.5 (human)) [µM] | IC50 (HLA-DQ2.2 (human)) [µM] | Molecule
16 | – | – | – | – | 35.8 | – | – | QQPFPEQQRSQFSQQ [… (SEQ ID NO: 85)]
17 | – | – | – | – | 39.1 | – | – | QQPPFSHQRPPFSQQ [… (SEQ ID NO: 70)]
18 | – | – | – | – | 31.5 | 32.3 | – | QQPPFSEQEQPSSQQ [… (SEQ ID NO: 77)]
19 | – | – | – | – | – | 30.4 | – | QQPAFSRQHQPSLPQ [… (SEQ ID NO: 73)]
20 | – | – | – | – | 39.2 | – | – | QPFFSHQQRSGFSQQ [… (SEQ ID NO: 83)]
21 | – | – | – | – | 37.9 | – | – | QSPFPEQQEQHQQLQ [… (SEQ ID NO: 185)]
22 | – | – | – | – | 1.14 | 0.158 | – | QPPFSEQQESPFSQQ [… (SEQ ID NO: 69)]
23 | – | – | – | – | 38.2 | – | – | GPPFSKQTEPVISQQ [… (SEQ ID NO: 186)]
24 | – | – | – | – | 39.9 | 32.4 | – | QQSPFPEQEQQHQQL [… (SEQ ID NO: 183)]
25 | – | – | – | – | 29.8 | – | – | QQPPFSKQEQQQPIL [… (SEQ ID NO: 71)]
26 | – | – | – | – | 31.9 | – | 39.8 | QPPSSEQQHSPPSQQ [… (SEQ ID NO: 81)]
27 | – | – | – | – | – | 37.4 | – | QQPPFWQHQPPFSQQ [… (SEQ ID NO: 76)]
